From PMC3024946, “Hydroxyproline-containing collagen analogs trigger the release and activation of collagen-sequestered proMMP-2 by competition with prodomain-derived peptide P33-42” (Fibrogenesis & Tissue Repair, 2011)

Experiments:
[1] = Triple-helix melting temperature; assay type: physicochemical; conditions: polarimetry; 5 mg/ml; 10 mM phosphate buffer, pH 7.4, 1°C/min
Protocol: (§1) Native human CI, CIII and CVI were purified from skin tissue and placenta. The CI single chains α1(I) and α2(I) were obtained and modified as described previously. To prepare defined fragments, 2 mg of α1(I) were dissolved in 1 ml of 70% (vol/vol) formic acid at room temperature, the tubes were flushed with nitrogen for 10 min, and then 2 mg of CB were added. After incubation for 4 h at 37°C, free CB was neutralized and the samples were lyophilized. The peptides CB3, CB6, CB7 and CB8 were separated from the reaction mixture by gel filtration followed by ion-exchange chromatography. The resulting peptides were characterized by amino acid analysis and SDS-PAGE [45, 46]. The CB peptides had the following melting temperatures: CB3, 23.9°C; CB6, 26.7°C; CB7, 28.1°C; and CB8, 28.0°C [31].
(§2) The following collagen analogs and control peptides were synthesized as described previously: (GPO)10, H-Gly-Cys-Hyp-(Gly-Pro-Hyp)10-Gly-Cys-Hyp-Gly-NH2; (GPP)10, H-Gly-Cys-Pro-(Gly-Pro-Pro)10-Gly-Cys-Pro-Gly-NH2; and GAP, H-Gly-Ala-Cys-(Gly-Ala-Pro)5-Gly-Phe-Hyp-Gly-Glu-Arg-(Gly-Ala-Pro)5-NH2. Peptides (POG)10, (PPG)10 and (POG)5 were purchased from Peptide International (Louisville, KY, USA). Spontaneous triple-helix assembly was approved by polarimetry over a 10-cm path length at 1°C/min in 10 mM phosphate buffer, pH 7.4. At 5 mg/ml, midpoints of melting curves occurred at 82.3 ± 1.4°C for (GPO)10 and at 45.8 ± 0.8°C for (GPP)10. […] Graphs were calculated from the primary data using a custom fitting program written by D.A. Slatter (Department of Biochemistry, University of Cambridge, Cambridge, UK [48]) to model different possible transitions. All collagens, CI derivatives and peptides were stored in stock solutions of 2 mg/ml in 150 mM acetic acid at -20°C.

ActMMP-9 = assay: Solid-phase binding of [125I]-actMMP-9 to immobilized collagens/peptides (microwells); set-up: species or system human; conditions: ActMMP-9, 2 ng/well; coated wells; 4°C, 2 h; residual radioactivity; mean ± SD, at least five experiments in triplicate
Protocol: (§3) Human recombinant proMMPs and in vitro activated MMPs were obtained from Invitek and were labeled with the [^125I]-Bolton-Hunter reagent according to the manufacturer's instructions (PerkinElmer, Rodgau, Germany) before the buffer was exchanged for phosphate-buffered saline (PBS) with 0.05% (vol/vol) Tween 20 by gel filtration as described previously. Specific radioactivity for [^125I]-MMPs was 3-9 × 10^4 cpm/ng. Precipitation with 10% (wt/vol) trichloroacetic acid and 200 μg of BSA recovered 96% to 100% of protein-bound radioactivity. Aliquots of labeled MMPs were frozen and stored at -80°C. The activity and integrity were checked by substrate gel zymography using SDS-PAGE and autoradiography with overnight exposure to Biomax MS film (Kodak, Stuttgart, Germany) (Figure 2A).
as §1, §2
(§4) ProMMP-2 and proMMP-9 or actMMP-2 and actMMP-9 were bound to nitrocellulose and polystyrene-immobilized native collagens, CI chains, CB peptides or structural analogs. Serial dilutions of collagens or CI derivatives in 150 mM acetic acid were dotted at 3 × 3 μl to a nitrocellulose membrane with high protein-binding capacity (GE Healthcare, Munich, Germany). Air-dried membranes were blocked with PBS and 0.3% (vol/vol) Tween 20 overnight at 4°C, washed three times, and incubated with 1 ng/ml [^125I]-pro- and actMMP-2 and pro- and actMMP-9 in PBS and 0.3% (vol/vol) Tween 20 for 2 h at room temperature. Membranes were washed again and air-dried, and bound MMP was monitored by autoradiography. In parallel, polystyrene microtiter plates (Dynex, Chantilly, VA, USA) were coated with collagen proteins and peptides. Here 2 μg/well or 200 ng/well proteins and peptides or BSA as control were immobilized in 100 μl of 50 mM ammonium bicarbonate buffer, pH 9.6, by overnight incubation at 4°C. Immobilization efficacies were 20% to 45% of total proteins. Wells were washed three times with PBS, and nonspecific binding sites were blocked with PBS and 0.05% (vol/vol) Tween 20 for 1 h at room temperature. All incubation steps were performed with 2 ng of [^125I]-MMPs at 4°C for 2 h. […]

ActMMP-2 = assay: Solid-phase binding of [125I]-actMMP-2 to immobilized collagens/peptides (microwells); set-up: species or system human; conditions: ActMMP-2, 2 ng/well; coated wells; 4°C, 2 h; residual radioactivity; mean ± SD, at least five experiments in triplicate
Protocol: as §3, §1, §2, §4

ProMMP-2 = assay: Solid-phase binding of [125I]-proMMP-2 to immobilized collagens/peptides (microwells); set-up: species or system human; conditions: for Binding of [125I]-MMPs: ProMMP-2, 2 ng/well, coated wells, 4°C, 2 h, residual radioactivity, mean ± SD, at least five experiments in triplicate
Protocol: as §3, §1, §2, §4

ProMMP-9 = assay: Solid-phase binding of [125I]-proMMP-9 to immobilized collagens/peptides (microwells); set-up: species or system human; conditions: for Binding of [125I]-MMPs: ProMMP-9, 2 ng/well, coated wells, 4°C, 2 h, residual radioactivity, mean ± SD, at least five experiments in triplicate
Protocol: as §3, §1, §2, §4

Substance	midpoint of melting curve [1] [°C]	Binding of [125I]-MMPs (ActMMP-9)	Binding of [125I]-MMPs (ActMMP-2)	Binding of [125I]-MMPs (ProMMP-2)	interaction with control peptides (ProMMP-2; pro- and act-forms of MMP-2 and MMP-9, in words)	Binding of [125I]-MMPs (ProMMP-9)	binding of proMMP vs respective actMMP (ProMMP-2; proMMP-2 vs actMMP-2 (stated jointly for MMP-2 and MMP-9))	binding of proMMP vs respective actMMP (ProMMP-9; proMMP-9 vs actMMP-9 (stated jointly for MMP-2 and MMP-9))
H-Gly-Cys-Pro-(Gly-Pro-Pro)10-Gly-Cys-Pro-Gly-NH2 [(GPP)10, Triple-helical Gly-Pro-Pro (GPP)10, devoid of Hyp]	45.8 ± 0.8	0.9 ± 0.4 % of maximum control	2.1 ± 0.7 % of maximum control	3.6 ± 2.0 % of maximum control	only marginal interactions	4.9 ± 0.7 % of maximum control	–	–
H-Gly-Cys-Hyp-(Gly-Pro-Hyp)10-Gly-Cys-Hyp-Gly-NH2 [(GPO)10, triple-helical Hyp-containing collagen analog]	82.3 ± 1.4	5.4 ± 0.6 % of maximum control	6.2 ± 3.1 % of maximum control	13.0 ± 3.5 % of maximum control	–	36.1 ± 1.7 % of maximum control	two- to sevenfold more strongly	two- to sevenfold more strongly
